# Laboratory results from publication PMC3293837, “Biophysical Property and Broad Anti-HIV Activity of Albuvirtide, a 3-Maleimimidopropionic Acid-Modified Peptide Fusion Inhibitor” (PLoS ONE, 2012).
# Assays:
# Type in all cases: cell-based, HIV-1
# [1] = tested on: B04 pseudovirus (subtype B′); settings: R5, TZM-bl, 48 h, triplicate, mean ± SD of at least three independent experiments
# Text: (§1) A panel of plasmids encoding HIV-1 Envs were obtained through the AIDS Research and Reference Reagent Program (ARRRP), Division of AIDS, NIAID, NIH, including subtype A Env clones pSVIII-92RW020.5 and 92UG037.8 from Dr. B.H. Hahn; subtype B Env clones SC422661.8, TRO.11 and AC10.0.29 from Drs. D. Montefiori, F. Gao and M. Li, pRHPA4259.7 and pREJO4541.67 from Drs. B.H. Hahn and J.F. Salazar-Gonzalez, and pCAAN5342.A2 from Drs. B.H. Hahn and D.L. Kothe; subtype C Env clones Du172.17 and Du422.1 from Drs. D. Montefiori, F. Gao, S. Abdool Karim and G. Ramjee, CAP45.2.00.G3 from Drs. L. Morris, K. Mlisana and D. Montefiori, ZM197M.PB7 from Drs. B.H. Hahn, Y. Li and J.F. Salazar-Gonzalez, ZM109F.PB4 from Drs. E. Hunter and C. Derdeyn. Six CRF07_BC Env clones (CH064.20, CH070.1, CH091.9, CH110.2, CH119.10 and CH120.6) were generous gifts by Dr. Y. Shao in the Chinese Center for Disease Control and Prevention, Beijing, China. A panel of Env clones derived from subtype B′ (B01, B02, B04, and 43-22), CRF01_AE (SHX335.24, YN192.31, AE01, AE03, GX2010.36, GX11.13, GX2010.36H, BJ5.11), and CRF07_BC (BC02, BC03, BC05, BC07, BC14, SC19-15, BJ22-5, YN148R-9, XJ50-6, HB5-3) were kindly provided by Dr. Y. Wang from the National Institute for the Control of Pharmaceutical and Biological Products, Beijing, China.
# [2] = tested on: CH119 pseudovirus (CRF07_BC); settings: R5, TZM-bl, 48 h, triplicate, mean ± SD of at least three independent experiments
# Text: as §1
# [3] = tested on: GX11.13 pseudovirus (CRF01_AE); settings: GX11.13, CRF01_AE, R5; TZM-bl, 48 h; triplicate, mean ± SD of at least three independent experiments
# Text: as §1
# [4] = tested on: BC03 pseudovirus (CRF07_BC); settings: R5, TZM-bl, 48 h, triplicate, mean ± SD of at least three independent experiments
# Text: as §1
# [5] = tested on: CH091 pseudovirus (CRF07_BC); settings: R5, TZM-bl, 48 h, triplicate, mean ± SD of at least three independent experiments
# Text: as §1
# [6] = tested on: GX2010.36H pseudovirus (CRF01_AE); settings: R5, TZM-bl, 48 h, triplicate, mean ± SD of at least three independent experiments
# Text: as §1
# [7] = tested on: B02 pseudovirus (subtype B′); settings: R5, TZM-bl, 48 h, triplicate, mean ± SD of at least three independent experiments
# Text: as §1
# [8] = tested on: CH064 pseudovirus (CRF07_BC); settings: R5, TZM-bl, 48 h, triplicate, mean ± SD of at least three independent experiments
# Text: as §1
# [9] = tested on: RHPA4259 pseudovirus (subtype B); settings: R5, TZM-bl, 48 h, triplicate, mean ± SD of three independent experiments
# Text: as §1
# [10] = tested on: AC10.0.29 pseudovirus (subtype B); settings: AC10.0.29, subtype B, R5; TZM-bl, 48 h; triplicate, mean ± SD of three independent experiments
# Text: as §1
# [11] = tested on: AE01 pseudovirus (CRF01_AE); settings: R5, TZM-bl, 48 h, triplicate, mean ± SD of at least three independent experiments
# Text: as §1
# [12] = tested on: TRO.11 pseudovirus (subtype B); settings: TRO.11, subtype B, R5; TZM-bl, 48 h; triplicate, mean ± SD of three independent experiments
# Text: as §1
# [13] = tested on: SHX335.24 pseudovirus (CRF01_AE); settings: SHX335.24, CRF01_AE, R5; TZM-bl, 48 h; triplicate, mean ± SD of at least three independent experiments
# Text: as §1
# [14] = tested on: CAAN5342 pseudovirus (subtype B); settings: R5, TZM-bl, 48 h, triplicate, mean ± SD of three independent experiments
# Text: as §1
# [15] = tested on: AE03 pseudovirus (CRF01_AE); settings: R5, TZM-bl, 48 h, triplicate, mean ± SD of at least three independent experiments
# Text: as §1
# [16] = tested on: BC07 pseudovirus (CRF07_BC); settings: R5, TZM-bl, 48 h, triplicate, mean ± SD of at least three independent experiments
# Text: as §1
# [17] = tested on: SC422661.8 pseudovirus (subtype B); settings: SC422661.8, subtype B, R5; TZM-bl, 48 h; triplicate, mean ± SD of three independent experiments
# Text: as §1
# [18] = tested on: SF162.LS pseudovirus (subtype B); settings: R5, TZM-bl, 48 h, triplicate, mean ± SD of three independent experiments
# Text: as §1
# [19] = tested on: XJ50-6 pseudovirus (CRF07_BC); settings: XJ50-6, CRF07_BC, R5; TZM-bl, 48 h; triplicate, mean ± SD of at least three independent experiments
# Text: as §1
# [20] = tested on: 43-22 pseudovirus (subtype B′); settings: 43-22, B′, R5; TZM-bl, 48 h; triplicate, mean ± SD of at least three independent experiments
# Text: as §1
# [21] = tested on: ZM197M.PB7 pseudovirus (subtype C); settings: R5, TZM-bl, 48 h, triplicate, mean ± SD of three independent experiments
# Text: as §1
# [22] = tested on: 92UG037.8 pseudovirus (subtype A); settings: 92UG037.8, subtype A, R5; TZM-bl, 48 h; triplicate, mean ± SD of three independent experiments
# Text: as §1
# [23] = tested on: ZM109F.PB4 pseudovirus (subtype C); settings: R5, TZM-bl, 48 h, triplicate, mean ± SD of three independent experiments
# Text: as §1
# [24] = tested on: Du172.17 pseudovirus (subtype C); settings: Du172.17, subtype C, R5; TZM-bl, 48 h; triplicate, mean ± SD of three independent experiments
# Text: as §1
substance,measurement,setting,value
enfuvirtide,IC50,[1],0.0078 ± 0.00043 µM
same,IC50,[2],0.0221 ± 0.00274 µM
same,IC50,[3],0.0066 ± 0.00032 µM
same,IC50,[4],0.00346 ± 0.00041 µM
same,IC50,[5],0.0659 ± 0.0143 µM
same,IC50,[6],0.0259 ± 0.00028 µM
same,IC50,[7],0.00859 ± 0.0008 µM
same,IC50,[8],0.0617 ± 0.0125 µM
same,IC50,[9],0.2819 ± 0.00057 µM
same,IC50,[10],0.0101 ± 0.00045 µM
same,IC50,[11],0.0248 ± 0.00225 µM
same,IC50,[12],0.334 ± 0.0489 µM
same,IC50,[13],0.051 ± 0.00735 µM
same,IC50,[14],0.723 ± 0.0535 µM
same,IC50,[15],0.0078 ± 0.00166 µM
same,IC50,[16],0.0125 ± 0.00158 µM
same,IC50,[17],0.0282 ± 0.00592 µM
same,IC50,[18],0.0435 ± 0.00916 µM
same,IC50,[19],0.0811 ± 0.0176 µM
same,IC50,[20],0.0121 ± 0.00324 µM
same,IC50,[21],0.0633 ± 0.017 µM
same,IC50,[22],0.00355 ± 0.00095 µM
same,IC50,[23],0.0764 ± 0.00269 µM
same,IC50,[24],0.0116 ± 0.00529 µM
